{"source": "patent US5098826A", "about": "“Detection, isolation and purification of Clostridium difficile toxin A with toxin receptors” (Virginia Tech Intellectual Properties, Inc., priority 1990, dated 1992)", "key": {"toxin A": {"molecular_target": "toxin A (Clostridioides difficile, UniProt P16154)", "sequence (P16154 whole entry, looked up)": "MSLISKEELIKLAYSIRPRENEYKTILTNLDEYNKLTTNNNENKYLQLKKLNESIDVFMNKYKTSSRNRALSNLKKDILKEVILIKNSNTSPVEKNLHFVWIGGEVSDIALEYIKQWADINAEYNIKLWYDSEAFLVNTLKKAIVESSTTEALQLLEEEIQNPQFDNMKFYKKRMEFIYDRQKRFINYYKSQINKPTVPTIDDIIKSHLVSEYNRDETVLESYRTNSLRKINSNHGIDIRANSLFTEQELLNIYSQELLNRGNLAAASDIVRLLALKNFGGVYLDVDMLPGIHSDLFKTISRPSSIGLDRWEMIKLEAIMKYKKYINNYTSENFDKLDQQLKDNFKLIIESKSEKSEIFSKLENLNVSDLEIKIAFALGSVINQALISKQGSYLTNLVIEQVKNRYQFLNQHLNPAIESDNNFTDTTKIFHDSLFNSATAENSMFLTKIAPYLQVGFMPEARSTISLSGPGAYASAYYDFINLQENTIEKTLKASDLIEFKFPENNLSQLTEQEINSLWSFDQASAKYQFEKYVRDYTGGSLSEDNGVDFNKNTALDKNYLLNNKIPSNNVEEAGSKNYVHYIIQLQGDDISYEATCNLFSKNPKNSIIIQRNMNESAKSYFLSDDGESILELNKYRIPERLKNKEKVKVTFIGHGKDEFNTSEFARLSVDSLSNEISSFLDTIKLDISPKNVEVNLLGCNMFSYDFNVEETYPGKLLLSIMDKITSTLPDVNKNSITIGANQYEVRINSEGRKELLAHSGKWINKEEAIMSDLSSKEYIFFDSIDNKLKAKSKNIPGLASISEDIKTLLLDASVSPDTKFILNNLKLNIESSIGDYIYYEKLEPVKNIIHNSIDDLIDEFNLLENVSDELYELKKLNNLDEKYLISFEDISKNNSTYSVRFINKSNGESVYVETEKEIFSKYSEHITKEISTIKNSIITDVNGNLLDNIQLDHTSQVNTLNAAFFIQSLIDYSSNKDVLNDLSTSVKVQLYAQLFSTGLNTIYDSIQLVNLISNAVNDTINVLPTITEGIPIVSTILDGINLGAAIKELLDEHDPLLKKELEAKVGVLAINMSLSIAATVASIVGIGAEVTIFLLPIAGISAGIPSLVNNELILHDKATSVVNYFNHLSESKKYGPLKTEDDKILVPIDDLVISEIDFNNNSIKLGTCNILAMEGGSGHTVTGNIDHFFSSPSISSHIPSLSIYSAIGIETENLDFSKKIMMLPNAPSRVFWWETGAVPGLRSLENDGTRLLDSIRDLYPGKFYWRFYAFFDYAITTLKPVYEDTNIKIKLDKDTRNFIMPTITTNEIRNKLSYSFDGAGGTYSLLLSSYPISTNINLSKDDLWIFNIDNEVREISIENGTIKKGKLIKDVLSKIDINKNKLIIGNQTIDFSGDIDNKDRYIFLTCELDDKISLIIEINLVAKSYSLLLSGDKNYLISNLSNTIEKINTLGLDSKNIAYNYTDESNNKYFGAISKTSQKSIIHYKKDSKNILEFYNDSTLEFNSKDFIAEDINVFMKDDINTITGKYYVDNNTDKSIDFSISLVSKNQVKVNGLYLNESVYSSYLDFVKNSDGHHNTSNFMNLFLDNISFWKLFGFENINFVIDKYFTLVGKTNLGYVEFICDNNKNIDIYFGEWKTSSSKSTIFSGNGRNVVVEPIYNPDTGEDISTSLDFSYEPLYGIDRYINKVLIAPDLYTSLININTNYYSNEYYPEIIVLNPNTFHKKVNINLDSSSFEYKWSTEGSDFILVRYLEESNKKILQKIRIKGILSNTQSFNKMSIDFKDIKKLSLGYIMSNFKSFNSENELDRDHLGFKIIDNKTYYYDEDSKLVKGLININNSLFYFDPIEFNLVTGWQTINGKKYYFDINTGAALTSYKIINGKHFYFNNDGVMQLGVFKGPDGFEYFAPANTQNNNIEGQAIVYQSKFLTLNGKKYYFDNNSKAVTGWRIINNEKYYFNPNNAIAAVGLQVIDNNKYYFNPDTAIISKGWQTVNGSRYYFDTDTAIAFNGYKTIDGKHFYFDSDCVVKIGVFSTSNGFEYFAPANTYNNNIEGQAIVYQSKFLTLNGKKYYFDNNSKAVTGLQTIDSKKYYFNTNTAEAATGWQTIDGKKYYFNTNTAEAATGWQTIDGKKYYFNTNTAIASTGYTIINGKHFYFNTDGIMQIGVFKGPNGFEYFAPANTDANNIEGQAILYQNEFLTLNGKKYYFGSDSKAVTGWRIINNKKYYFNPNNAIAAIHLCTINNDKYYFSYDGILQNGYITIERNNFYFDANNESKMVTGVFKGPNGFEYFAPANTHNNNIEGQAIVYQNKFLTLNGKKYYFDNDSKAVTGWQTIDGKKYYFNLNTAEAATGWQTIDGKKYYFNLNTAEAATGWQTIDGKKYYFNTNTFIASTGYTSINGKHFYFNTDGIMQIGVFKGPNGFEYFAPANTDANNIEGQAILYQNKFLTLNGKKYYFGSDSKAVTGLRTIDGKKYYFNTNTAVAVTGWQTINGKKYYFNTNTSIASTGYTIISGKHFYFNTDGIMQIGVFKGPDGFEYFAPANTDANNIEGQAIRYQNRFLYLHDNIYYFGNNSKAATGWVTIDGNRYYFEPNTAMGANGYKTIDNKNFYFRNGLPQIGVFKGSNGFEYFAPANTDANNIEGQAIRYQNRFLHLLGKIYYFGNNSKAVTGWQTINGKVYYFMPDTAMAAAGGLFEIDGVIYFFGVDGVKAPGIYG", "conditions": "cited from earlier work; for toxin A binding: Krivan et al., U.S. Pat. No. 4,863,852, Clark et al."}, "C. difficile toxin A": {"molecular_target": "T1, C. difficile toxin A (Clostridioides difficile, UniProt P16154)", "T1 construct": "The organism was cultured, and the toxin A was purified from the culture filtrate; made in house; host or cells: C. difficile VPI strain 10463 (natural producer, culture filtrate; not recombinant)", "assay": "Crossed immunoelectrophoresis (X-IEP) toxin A binding assay", "set-up": "species or system Clostridium difficile", "conditions": "100 μg toxin A mixed with 500 μg/ml conjugate, on ice 10 minutes, electrophoresis at 4° C., pH 8.6", "protocol": "100 μg toxin A and 500 μg/ml of each of the oligosaccharide-HSA conjugates of Table 1 in PBS were mixed and incubated on ice for 10 minutes, then 5 μl of this mixture was assayed by X-IEP for toxin A binding on a 5×5 cm glass slide substantially as described by Lyerly et al., J. Clin. Microbiol. 17, 72-78 (1983). Briefly, wells (1 mm in diameter) were cut in gels composed of 1.2% (wt/vol) low electroendosmotic agarose (Sigma Chemical Co.) in 0.025M Tris-Tricine buffer (0.6 g agarose in 50 ml buffer) (pH 8.6). The Tris-Tricine buffer is prepared by combining the following and adding deionized water up to a volume of 1 L: Tris, 9.8 g; Ca-lactate, 0.106 g; Tricine, 4.3 g; NaN3, 0.2 g. For the first dimension, oligosaccharide-HSA sample (5 μl) was placed in a sample well in the lower corner of the plate. 0.1% bromphenol blue was placed in an upper corner well as a tracing dye, and the plate was subjected to electrophoresis at 10 V/cm at constant current and 4° C. The second dimension of the plate consisted of a 1.2% (wt/vol) agarose gel containing 0.1 ml of goat antiserum to C. difficile culture filtrate. Electrophoresis was performed at 10 V/cm for about 3 hours at 4° C. Gels were washed in 20 mM sodium phosphate with 130 mM NaCl, pH 7.4, stained with a staining solution (5 g Coomassie Blue R-250, 450 ml EtOH, […], and 450 ml deionized H2 O), and de-stained in the staining solution minus Coomassie Blue.\nThe principle behind the X-IEP assay is that the rate of migration of toxin A in an electric field is dependent on the net charge of the molecule, which is dependant on its isoelectric point and the pH of the electrophoresis medium. Toxin A has a slight negative charge at pH 8.6, which is the pH at which the X-IEP was carried out. The toxin migrates slowly in the applied electric field. HSA, on the other hand, has a relatively high net negative charge at pH 8.6. […]"}}, "data": [{"molecule": "CC(=O)N[C@H]1C(O)O[C@H](CO)[C@@H](O[C@@H]2O[C@H](CO)[C@H](O)[C@H](O[C@H]3O[C@H](CO)[C@H](O)[C@H](O)[C@H]3O)[C@H]2O)[C@@H]1O", "note": "(some centres unmarked) [Galα(1→3)Galβ(1→4)GlcNAc]", "values": [{"measurement": "toxin A binding at 37° C.", "setting": "toxin A; 37° C., U.S. Pat. No. 4,863,852", "result": "not detected"}, {"measurement": "toxin A binding", "setting": "toxin A", "result": "binds"}, {"measurement": "temperature of maximal binding of toxin A", "setting": "toxin A; U.S. Pat. No. 4,863,852", "result": 4, "unit": "°C"}]}, {"molecule": "CC(=O)N[C@H]1C(O)O[C@H](CO)[C@@H](O[C@@H]2O[C@H](CO)[C@H](O)[C@H](O[C@H]3O[C@H](CO)[C@H](O)[C@H](O)[C@H]3O)[C@H]2O[C@@H]2O[C@@H](C)[C@@H](O)[C@@H](O)[C@@H]2O)[C@@H]1O", "note": "(some centres unmarked) [Galα(1→3)[Fucα-(1→2)]Galβ(1→4)GlcNAc, Galα(1→3)[Fucα(1→2)]Galβ(1→4)GlcNAc]", "values": [{"measurement": "toxin A binding", "setting": "toxin A", "result": "does not bind"}]}, {"molecule": "CC(=O)N[C@H]1[C@H](O[C@H]2[C@@H](O)[C@@H](CO)O[C@@H](O[C@H]3[C@H](O)[C@@H](O)C(O)O[C@@H]3CO)[C@@H]2O)O[C@H](CO)[C@@H](O[C@@H]2O[C@H](CO)[C@H](O)[C@H](O)[C@H]2O)[C@@H]1O", "note": "(some centres unmarked) [LNnT, Galβ(1→4)GlcNAcβ(1→3)Galβ(1→4)Glc]", "values": [{"measurement": "Toxin A Binding X-IEP (altered migration of toxin A)", "setting": "C. difficile toxin A", "result": "did not bind the toxin"}, {"measurement": "toxin A binding", "setting": "toxin A", "result": "prevents toxin A from binding"}]}, {"molecule": "Secretory Component: human protein known to contain the X antigen", "values": [{"measurement": "Toxin A Binding X-IEP (altered migration of toxin A)", "setting": "C. difficile toxin A; listed as SC", "result": "same behavior"}]}, {"molecule": "Carcinoembryonic Antigen: human protein known to contain the X antigen (protein, UniProt P06731 35-685, looked up) Cell adhesion molecule CEACAM5: KLTIESTPFNVAEGKEVLLLVHNLPQHLFGYSWYKGERVDGNRQIIGYVIGTQQATPGPAYSGREIIYPNASLLIQNIIQNDTGFYTLHVIKSDLVNEEATGQFRVYPELPKPSISSNNSKPVEDKDAVAFTCEPETQDATYLWWVNNQSLPVSPRLQLSNGNRTLTLFNVTRNDTASYKCETQNPVSARRSDSVILNVLYGPDAPTISPLNTSYRSGENLNLSCHAASNPPAQYSWFVNGTFQQSTQELFIPNITVNNSGSYTCQAHNSDTGLNRTTVTTITVYAEPPKPFITSNNSNPVEDEDAVALTCEPEIQNTTYLWWVNNQSLPVSPRLQLSNDNRTLTLLSVTRNDVGPYECGIQNELSVDHSDPVILNVLYGPDDPTISPSYTYYRPGVNLSLSCHAASNPPAQYSWLIDGNIQQHTQELFISNITEKNSGLYTCQANNSASGHSRTTVKTITVSAELPKPSISSNNSKPVEDKDAVAFTCEPEAQNTTYLWWVNGQSLPVSPRLQLSNGNRTLTLFNVTRNDARAYVCGIQNSVSANRSDPVTLDVLYGPDTPIISPPDSSYLSGANLNLSCHSASNPSPQYSWRINGIPQQHTQVLFIAKITPNNNGTYACFVSNLATGRNNSIVKSITVSASGTSPGLSA", "values": [{"measurement": "Toxin A Binding X-IEP (altered migration of toxin A)", "setting": "C. difficile toxin A; listed as CEA", "result": "same behavior"}]}]}
